# Where two headings read alike, the source gives them in different places.
# Legend:
# Experiment in all cases: in vitro antibacterial activity, agar dilution method (MIC)
# Assay type in all cases: cell-based
# [1] = system: Staphylococcus Aureus; details: BHI agar, 20-24 hours
# Procedure: (§1) The test medium was Brain Heart Infusion (BHI) agar. The antibacterial agent was dissolved at a concentration of 2,000 ug/mL. Test plates were then prepared, usually 12 two-fold dilutions. After adding the sample to the plates, 10 mL of cooled BHI agar medium was added to each plate. The organisms were grown overnight in BHI broth (Difco) in a 35°-37° C. incubator.
# (§2) On the day of testing, the bacterial suspensions were diluted 1:100 in sterile distilled water, except for a few slow-growing organisms (usually Micrococcus and Streptococcus) which were diluted 1:10. The plate was then inoculated with approximately 10^4 organisms. This was incubated in a 35°-37° C. incubator for 20-24 hours. Thereafter, the plates were read to determine the minimum inhibitory concentration (MIC) defined as the lowest concentration of drug yielding no growth on the plate, a slight haze, or sparsely isolated colonies on the inoculum spot as compared to the growth control.
# [2] = system: Enterococcus Faecium; details: BHI agar, 20-24 hours
# Procedure: as §1, §2
# [3] = system: Staphylococcus Epidermidis; details: strain 3519, BHI agar, 20-24 hours
# Procedure: as §1, §2
# [4] = system: Enterobacter Aerogenes; details: BHI agar, 20-24 hours
# Procedure: as §1, §2
# [5] = system: Haemophilus Influenzae; details: BHI agar, 20-24 hours
# Procedure: as §1, §2
# [6] = system: Streptococcus Agalactiae; details: strain CMX 508, BHI agar, 20-24 hours
# Procedure: as §1, §2
# [7] = system: Micrococcus Luteus; details: BHI agar, 20-24 hours
# Procedure: as §1, §2
# [8] = system: Streptococcus Bovis
# Procedure: as §1, §2
# [9] = system: Providencia Stuartii; details: strain CMX 640, BHI agar, 20-24 hours
# Procedure: as §1, §2
# [10] = system: Pseudomonas Aeruginosa; details: BHI agar, 20-24 hours
# Procedure: as §1, §2
# [11] = system: Streptococcus Pyogenes; details: BHI agar, 20-24 hours
# Procedure: as §1, §2
# [12] = system: Acinetobacter Sp; details: strain CMX 669, BHI agar, 20-24 hours
# Procedure: as §1, §2
# [13] = system: Klebsiella Pneumoniae; details: BHI agar, 20-24 hours
# Procedure: as §1, §2
# [14] = system: Pseudomonas Cepacia; details: strain 296I, BHI agar, 20-24 hours
# Procedure: as §1, with “Compounds 1 to 8 were evaluated for antibacterial activity by the agar dilution method to determine the degree of in vitro susceptibility of aerobic microorganisms to antimicrobial agents. The test” for “The test”
# as §2
# [15] = system: Escherichia Coli; details: BHI agar, 20-24 hours
# Procedure: as §1, with “Compounds 1 to 8 were evaluated for antibacterial activity by the agar dilution method to determine the degree of in vitro susceptibility of aerobic microorganisms to antimicrobial agents. The test” for “The test”
# as §2
compound,measurement,setting,value
"CCC1OC(=O)CC(O)C(C)C(OC2OC(C)C(O)C(N(C)C)C2O)C(CC=O)CC(C)C(N(C)C)CCC(C)=CC1COC(C)=O (stereo not shown) [Example 7, [9S]-23-O-Acetyl-9-deoxo-10,11-dihydro-9-N,N-dimethylamino-5-O-mycaminosyl-tylonide]",MIC,[1]; strain 45,3.1 µg/mL
same,MIC,[1]; strain 45 RAR2,6.2 µg/mL
same,MIC,[1]; strain 642A,6.2 µg/mL
same,MIC,[1]; strain A5177,6.2 µg/mL
same,MIC,[1]; strain ATCC 6538P,6.2 µg/mL
same,MIC,[1]; strain CMX 553,6.2 µg/mL
same,MIC,[1]; strain NCTC 10649,6.2 µg/mL
same,MIC,[2]; strain ATCC 8043,1.56 µg/mL
same,MIC,[3],1.56 µg/mL
same,MIC,[4]; strain ATCC 13048,> 100 µg/mL
same,MIC,"[5]; Haemophilus influenzae, strain 588A, read-out: MIC",4 µg/mL
same,MIC,[5]; strain 503B,2 µg/mL
same,MIC,[5]; strain 519A,1 µg/mL
same,MIC,[5]; strain 566A,4 µg/mL
same,MIC,[5]; strain 747C,4 µg/mL
same,MIC,[5]; strain 751,16 µg/mL
same,MIC,[5]; strain 1177,0.5 µg/mL
same,MIC,[5]; strain 1435,4 µg/mL
same,MIC,[5]; strain ATCC 9795,4 µg/mL
same,MIC,[5]; strain ATCC 10211,4 µg/mL
same,MIC,[5]; strain ATCC 19418,4 µg/mL
same,MIC,[5]; strain ATCC 43095,2 µg/mL
same,MIC,[5]; strain DILL AMP R,4 µg/mL
same,MIC,[5]; strain SOL AMP R,4 µg/mL
same,MIC,[5]; strain SPK AMP R,4 µg/mL
same,MIC,[6],0.39 µg/mL
same,MIC,[7]; strain ATCC 4698,1.56 µg/mL
same,MIC,[7]; strain ATCC 9341,0.78 µg/mL
same,MIC,"[8]; strain A5169, BHI agar, 20-24 hours",0.1 µg/mL
same,MIC,[9],> 100 µg/mL
same,MIC,[10]; strain A5007,> 100 µg/mL
same,MIC,[10]; strain BMH10,100 µg/mL
same,MIC,[10]; strain K799/61,3.1 µg/mL
same,MIC,[10]; strain K799/WT,> 100 µg/mL
same,MIC,[11]; strain 930 CONST,> 100 µg/mL
same,MIC,[11]; strain 2548 INDUC,1.56 µg/mL
same,MIC,[11]; strain EES61,0.78 µg/mL
same,MIC,[12],50 µg/mL
same,MIC,[13]; strain ATCC 8045,100 µg/mL
same,MIC,[14],> 100 µg/mL
same,MIC,[15]; strain DC-2,50 µg/mL
same,MIC,[15]; strain H560,12.5 µg/mL
same,MIC,[15]; strain JUHL,100 µg/mL
same,MIC,[15]; strain KNK 437,50 µg/mL
same,MIC,[15]; strain SS,0.78 µg/mL
"CCC1OC(=O)CC(O)C(C)C(OC2OC(C)C(O)C(N(C)C)C2O)C(CC=O)CC(C)C(N(C)C)C=CC(C)=CC1COC(C)=O (stereo not shown) [Example 4, [9R]-23-O-Acetyl-9-deoxo-9-N,N-dimethylamino-5-O-mycaminosyl-tylonide]",MIC,"[1]; Staphylococcus aureus, ATCC6538P, strain ATCC 6538P, read-out: MIC",0.78 µg/mL
same,MIC,"[1]; Staphylococcus aureus, NCTC10649, strain NCTC 10649, read-out: MIC",0.78 µg/mL
same,MIC,"[1]; Staphylococcus aureus, strain 45, read-out: MIC",0.78 µg/mL
same,MIC,"[1]; Staphylococcus aureus, strain 45 RAR2, read-out: MIC",1.56 µg/mL
same,MIC,"[1]; Staphylococcus aureus, strain 642A, read-out: MIC",1.56 µg/mL
same,MIC,"[1]; Staphylococcus aureus, strain A5177, read-out: MIC",0.78 µg/mL
same,MIC,"[1]; Staphylococcus aureus, strain CMX 553, read-out: MIC",1.56 µg/mL
same,MIC,"[2]; Enterococcus faecium, ATCC8043, strain ATCC 8043, read-out: MIC",0.39 µg/mL
same,MIC,"[3]; Staphylococcus epidermidis, read-out: MIC",0.78 µg/mL
same,MIC,"[4]; Klebsiella aerogenes, ATCC13048, strain ATCC 13048, read-out: MIC",100 µg/mL
same,MIC,"[5]; Haemophilus influenzae, ATCC9795, strain ATCC 9795, read-out: MIC",1 µg/mL
same,MIC,"[5]; Haemophilus influenzae, ATCC10211, strain ATCC 10211",2 µg/mL
same,MIC,"[5]; Haemophilus influenzae, ATCC19418, strain ATCC 19418",2 µg/mL
same,MIC,"[5]; Haemophilus influenzae, ATCC43095, strain ATCC 43095",2 µg/mL
same,MIC,"[5]; Haemophilus influenzae, strain 503B",2 µg/mL
same,MIC,"[5]; Haemophilus influenzae, strain 504, read-out: MIC",0.25 µg/mL
same,MIC,"[5]; Haemophilus influenzae, strain 519A, read-out: MIC",1 µg/mL
same,MIC,"[5]; Haemophilus influenzae, strain 566A, read-out: MIC",1 µg/mL
same,MIC,"[5]; Haemophilus influenzae, strain 588A",2 µg/mL
same,MIC,"[5]; Haemophilus influenzae, strain 747C",2 µg/mL
same,MIC,"[5]; Haemophilus influenzae, strain 751, read-out: MIC",8 µg/mL
same,MIC,"[5]; Haemophilus influenzae, strain 1177, read-out: MIC",0.25 µg/mL
same,MIC,"[5]; Haemophilus influenzae, strain 1435, read-out: MIC",1 µg/mL
same,MIC,"[5]; Haemophilus influenzae, strain DILL AMP R",2 µg/mL
same,MIC,"[5]; Haemophilus influenzae, strain SOL AMP R",2 µg/mL
same,MIC,"[5]; Haemophilus influenzae, strain SPK AMP R",2 µg/mL
same,MIC,"[6]; Streptococcus agalactiae, read-out: MIC",0.1 µg/mL
same,MIC,"[7]; Micrococcus luteus, ATCC4698, strain ATCC 4698, read-out: MIC",0.39 µg/mL
same,MIC,"[7]; Micrococcus luteus, ATCC9341, strain ATCC 9341, read-out: MIC",0.2 µg/mL
same,MIC,[8]; Streptococcus equinus,≤ 0.02 µg/mL
same,MIC,"[9]; Providencia stuartii, read-out: MIC",> 100 µg/mL
same,MIC,"[10]; Pseudomonas aeruginosa, strain A5007, read-out: MIC",100 µg/mL
same,MIC,"[10]; Pseudomonas aeruginosa, strain BMH10, read-out: MIC",100 µg/mL
same,MIC,"[10]; Pseudomonas aeruginosa, strain K799/61, read-out: MIC",3.1 µg/mL
same,MIC,"[10]; Pseudomonas aeruginosa, strain K799/WT, read-out: MIC",100 µg/mL
same,MIC,"[11]; Streptococcus pyogenes, strain 930 CONST, read-out: MIC",> 100 µg/mL
same,MIC,"[11]; Streptococcus pyogenes, strain 2548 INDUC, read-out: MIC",0.78 µg/mL
same,MIC,"[11]; Streptococcus pyogenes, strain EES61, read-out: MIC",0.1 µg/mL
same,MIC,"[12]; Acinetobacter, read-out: MIC",6.2 µg/mL
same,MIC,"[13]; Klebsiella pneumoniae, ATCC8045, strain ATCC 8045, read-out: MIC",50 µg/mL
same,MIC,"[14]; Burkholderia cepacia, read-out: MIC",> 100 µg/mL
same,MIC,"[15]; Escherichia coli, strain DC-2, read-out: MIC",25 µg/mL
same,MIC,"[15]; Escherichia coli, strain H560, read-out: MIC",12.5 µg/mL
same,MIC,"[15]; Escherichia coli, strain JUHL, read-out: MIC",50 µg/mL
same,MIC,"[15]; Escherichia coli, strain KNK 437, read-out: MIC",50 µg/mL
same,MIC,"[15]; Escherichia coli, strain SS, read-out: MIC",0.78 µg/mL

# Reference: patent US5140014A (Abbott Laboratories, priority 1989, dated 1992)
